Source: US20260137703A1, “2-AMINO-PYRIDO[2,3-D]PYRIMIDIN-7(8H)-ONE AND 7-AMINO-1-PYRIMIDO[4,5-D]PYRIMIDIN-2(1 H)-ONE DERIVATIVES AS EGFR INHIBITORS FOR THE TREATMENT OF CANCER” (Cancer Research Technology Limited, priority 2022, published 2026)
pIC50: −log10 of the molar value.

Columns and labels:
[1] = biological target: T1, Phospho-EGFR (Tyr1068) in H1975 cells (Homo sapiens, UniProt P00533, L858R/T790M); assay: HTRF pEGFR/total EGFR in H1975 cells; type: cell-based; settings: ratio pEGFR/total EGFR, compound 3 hours
T1 construct: host or cells: H1975
T1 sequence (P00533 25-1210 T790M/L858R): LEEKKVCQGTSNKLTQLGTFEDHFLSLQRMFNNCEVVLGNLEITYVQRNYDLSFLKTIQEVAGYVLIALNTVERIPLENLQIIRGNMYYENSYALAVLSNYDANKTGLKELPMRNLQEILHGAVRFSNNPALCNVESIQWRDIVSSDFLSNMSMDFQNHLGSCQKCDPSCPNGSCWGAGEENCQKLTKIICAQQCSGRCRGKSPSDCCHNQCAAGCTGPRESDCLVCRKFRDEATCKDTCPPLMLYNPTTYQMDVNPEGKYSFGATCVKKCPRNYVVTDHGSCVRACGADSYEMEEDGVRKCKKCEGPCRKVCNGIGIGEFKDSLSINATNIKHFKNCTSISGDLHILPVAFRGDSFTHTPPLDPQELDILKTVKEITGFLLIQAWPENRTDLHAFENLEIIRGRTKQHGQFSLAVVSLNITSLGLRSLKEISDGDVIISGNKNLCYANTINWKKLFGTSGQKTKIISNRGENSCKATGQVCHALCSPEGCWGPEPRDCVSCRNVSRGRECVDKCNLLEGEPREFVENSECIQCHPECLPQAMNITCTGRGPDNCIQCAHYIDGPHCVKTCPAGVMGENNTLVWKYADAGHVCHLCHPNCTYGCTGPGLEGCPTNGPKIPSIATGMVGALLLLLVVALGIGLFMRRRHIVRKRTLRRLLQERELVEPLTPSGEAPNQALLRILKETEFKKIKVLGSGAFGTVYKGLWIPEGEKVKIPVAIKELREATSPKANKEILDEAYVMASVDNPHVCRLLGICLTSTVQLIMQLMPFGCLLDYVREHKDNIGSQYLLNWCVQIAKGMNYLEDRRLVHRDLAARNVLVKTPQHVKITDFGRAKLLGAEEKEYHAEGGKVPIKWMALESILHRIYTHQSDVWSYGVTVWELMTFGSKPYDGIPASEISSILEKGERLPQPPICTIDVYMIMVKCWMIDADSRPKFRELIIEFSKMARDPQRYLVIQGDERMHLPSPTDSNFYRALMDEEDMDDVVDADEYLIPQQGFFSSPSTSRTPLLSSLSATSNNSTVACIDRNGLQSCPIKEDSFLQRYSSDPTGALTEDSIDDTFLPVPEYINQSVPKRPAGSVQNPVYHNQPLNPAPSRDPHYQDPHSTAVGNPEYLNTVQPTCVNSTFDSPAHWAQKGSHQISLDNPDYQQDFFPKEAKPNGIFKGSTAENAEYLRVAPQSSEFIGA
Procedure, shortened: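 Readout is the phospho-EGFR (Tyr1068) to total EGFR HTRF ratio, expressed relative to 0 μM control. Adhered H1975 cells were exposed to compound for 3 hours at 0.1% DMSO, duplicate wells, then lysed for 30 min at room temperature before two-wavelength fluorescence reading.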

[2] = biological target: CtermHisTag-mEGFR Wild type (Homo sapiens, UniProt P00533); assay: biochemical
CtermHisTag-mEGFR Wild type, sequence (P00533 whole entry): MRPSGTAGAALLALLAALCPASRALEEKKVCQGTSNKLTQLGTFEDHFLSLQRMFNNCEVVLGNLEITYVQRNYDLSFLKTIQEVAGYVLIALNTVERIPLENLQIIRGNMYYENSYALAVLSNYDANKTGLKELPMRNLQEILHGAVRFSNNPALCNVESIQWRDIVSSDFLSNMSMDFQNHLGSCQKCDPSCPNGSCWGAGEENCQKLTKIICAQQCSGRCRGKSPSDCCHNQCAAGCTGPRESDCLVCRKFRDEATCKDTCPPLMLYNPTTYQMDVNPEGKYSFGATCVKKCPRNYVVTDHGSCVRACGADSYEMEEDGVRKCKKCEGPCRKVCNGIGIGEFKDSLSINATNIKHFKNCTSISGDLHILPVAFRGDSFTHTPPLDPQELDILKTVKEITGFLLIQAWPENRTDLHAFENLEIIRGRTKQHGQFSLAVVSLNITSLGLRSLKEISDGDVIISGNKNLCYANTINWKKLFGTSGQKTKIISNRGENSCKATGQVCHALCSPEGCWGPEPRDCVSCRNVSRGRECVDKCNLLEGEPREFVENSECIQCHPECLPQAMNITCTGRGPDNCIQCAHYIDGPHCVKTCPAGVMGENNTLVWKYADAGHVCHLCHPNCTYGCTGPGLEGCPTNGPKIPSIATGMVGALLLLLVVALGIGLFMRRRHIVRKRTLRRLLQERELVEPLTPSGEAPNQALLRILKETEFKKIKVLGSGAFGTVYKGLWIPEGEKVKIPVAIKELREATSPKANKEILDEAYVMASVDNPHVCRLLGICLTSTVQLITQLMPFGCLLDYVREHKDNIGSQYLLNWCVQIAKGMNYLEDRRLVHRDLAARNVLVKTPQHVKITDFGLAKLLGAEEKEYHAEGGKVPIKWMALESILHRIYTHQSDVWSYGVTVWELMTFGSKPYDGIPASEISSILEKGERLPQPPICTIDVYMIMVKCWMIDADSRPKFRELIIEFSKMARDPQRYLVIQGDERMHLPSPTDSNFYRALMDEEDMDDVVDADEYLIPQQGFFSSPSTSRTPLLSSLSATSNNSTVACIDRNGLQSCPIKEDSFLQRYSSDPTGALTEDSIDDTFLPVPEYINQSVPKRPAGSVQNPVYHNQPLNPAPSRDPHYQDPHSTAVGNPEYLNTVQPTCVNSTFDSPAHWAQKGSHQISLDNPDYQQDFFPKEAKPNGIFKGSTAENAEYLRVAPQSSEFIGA

[3] = biological target: T2, Phospho-EGFR (Tyr1068) in H1975 C797S cells (CRISPR-edited EGFR C797S) (Homo sapiens, UniProt P00533, C797S/L858R/T790M); assay: HTRF pEGFR/total EGFR in H1975 C797S cells; type: cell-based; settings: ratio pEGFR/total EGFR, compound 3 hours
T2 construct: host or cells: H1975 C797S (CRISPR-edited)
T2 sequence (P00533 25-1210 T790M/C797S/L858R): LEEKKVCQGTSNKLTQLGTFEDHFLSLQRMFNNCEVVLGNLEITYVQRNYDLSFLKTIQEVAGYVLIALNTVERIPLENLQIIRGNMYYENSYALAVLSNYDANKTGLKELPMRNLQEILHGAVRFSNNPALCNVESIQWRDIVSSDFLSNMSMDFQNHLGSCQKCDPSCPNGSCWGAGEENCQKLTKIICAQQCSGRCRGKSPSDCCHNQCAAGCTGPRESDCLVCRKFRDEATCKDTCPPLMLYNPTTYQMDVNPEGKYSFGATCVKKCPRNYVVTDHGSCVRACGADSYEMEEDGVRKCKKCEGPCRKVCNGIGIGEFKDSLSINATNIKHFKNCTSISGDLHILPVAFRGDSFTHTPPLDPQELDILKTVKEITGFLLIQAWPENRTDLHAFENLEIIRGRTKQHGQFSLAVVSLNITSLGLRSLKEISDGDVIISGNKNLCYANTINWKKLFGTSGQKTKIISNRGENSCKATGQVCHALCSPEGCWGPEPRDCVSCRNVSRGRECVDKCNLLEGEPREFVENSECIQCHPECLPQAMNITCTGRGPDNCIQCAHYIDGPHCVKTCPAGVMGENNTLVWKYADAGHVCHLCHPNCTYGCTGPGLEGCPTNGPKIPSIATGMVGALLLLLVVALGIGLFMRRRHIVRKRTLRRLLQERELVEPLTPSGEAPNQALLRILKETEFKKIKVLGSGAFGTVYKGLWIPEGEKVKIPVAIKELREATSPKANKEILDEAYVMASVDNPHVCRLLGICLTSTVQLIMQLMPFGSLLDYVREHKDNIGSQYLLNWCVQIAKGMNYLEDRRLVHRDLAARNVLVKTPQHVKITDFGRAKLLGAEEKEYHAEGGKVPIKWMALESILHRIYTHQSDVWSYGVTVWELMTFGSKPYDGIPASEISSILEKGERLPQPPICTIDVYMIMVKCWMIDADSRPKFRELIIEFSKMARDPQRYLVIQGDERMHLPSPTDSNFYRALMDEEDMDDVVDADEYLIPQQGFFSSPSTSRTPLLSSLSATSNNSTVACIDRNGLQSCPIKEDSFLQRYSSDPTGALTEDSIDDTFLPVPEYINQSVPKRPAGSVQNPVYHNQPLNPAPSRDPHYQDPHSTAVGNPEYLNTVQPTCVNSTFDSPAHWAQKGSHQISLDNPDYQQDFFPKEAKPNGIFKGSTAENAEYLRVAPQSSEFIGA
Procedure, shortened: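 Readout is the HTRF-measured Tyr1068 phospho-EGFR to total EGFR ratio, normalised to the 0 μM control as percent. Preceding this, CRISPR-edited H1975 C797S cells, plated 24 h earlier, were exposed 3 h to duplicate compound doses in medium with 0.1% DMSO, then lysed on a shaker.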

[4] = biological target: T3, Phospho-EGFR (Tyr1068) in A431 cells (Homo sapiens, UniProt P00533); assay: HTRF pEGFR/total EGFR in A431 cells with EGF stimulation; type: cell-based; settings: ratio pEGFR/total EGFR, compound 2.5 hours then 100 ng/ml EGF 30 mins
T3 construct: endogenous in cells; host or cells: A431
T3 sequence (P00533 25-1210): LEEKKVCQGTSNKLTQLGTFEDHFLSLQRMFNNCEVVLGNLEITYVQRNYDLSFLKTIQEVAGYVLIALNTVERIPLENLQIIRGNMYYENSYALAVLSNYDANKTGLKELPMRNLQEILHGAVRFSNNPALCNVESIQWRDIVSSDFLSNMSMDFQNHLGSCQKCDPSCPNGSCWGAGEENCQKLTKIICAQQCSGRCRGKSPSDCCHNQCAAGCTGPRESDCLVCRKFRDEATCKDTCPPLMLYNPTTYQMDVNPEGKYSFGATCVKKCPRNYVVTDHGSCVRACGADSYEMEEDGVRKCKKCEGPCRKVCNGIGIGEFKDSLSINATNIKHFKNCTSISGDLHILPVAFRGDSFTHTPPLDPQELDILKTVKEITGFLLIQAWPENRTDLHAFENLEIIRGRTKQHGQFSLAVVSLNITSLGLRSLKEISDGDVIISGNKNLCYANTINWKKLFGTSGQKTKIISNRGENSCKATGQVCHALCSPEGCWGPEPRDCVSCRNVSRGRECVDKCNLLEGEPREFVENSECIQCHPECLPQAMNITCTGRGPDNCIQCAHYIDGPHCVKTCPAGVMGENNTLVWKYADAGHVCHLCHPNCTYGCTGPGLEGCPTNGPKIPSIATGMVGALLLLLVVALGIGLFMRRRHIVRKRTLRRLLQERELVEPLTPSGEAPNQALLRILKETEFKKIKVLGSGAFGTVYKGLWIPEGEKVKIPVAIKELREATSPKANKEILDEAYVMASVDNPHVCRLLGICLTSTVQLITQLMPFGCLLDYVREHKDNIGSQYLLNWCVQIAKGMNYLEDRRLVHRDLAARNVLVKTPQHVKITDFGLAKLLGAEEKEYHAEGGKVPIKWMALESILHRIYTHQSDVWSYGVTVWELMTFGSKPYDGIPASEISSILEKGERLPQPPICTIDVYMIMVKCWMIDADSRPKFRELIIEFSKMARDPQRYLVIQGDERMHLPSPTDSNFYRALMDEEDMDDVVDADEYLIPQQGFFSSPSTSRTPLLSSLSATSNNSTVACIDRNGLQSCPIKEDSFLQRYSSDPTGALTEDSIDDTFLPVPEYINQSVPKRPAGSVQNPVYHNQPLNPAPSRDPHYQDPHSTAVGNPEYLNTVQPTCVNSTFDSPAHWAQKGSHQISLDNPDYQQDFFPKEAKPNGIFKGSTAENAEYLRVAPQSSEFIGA
Procedure, shortened: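 Values are pEGFR(Tyr1068)/total EGFR HTRF ratios (665/620 nm) given as percent of the 0 μM control. Adhered A431 cells (20,000 per well, 24 h) had 2.5 h compound pretreatment in 0.1% DMSO, then 30 min of 100 ng/ml EGF before lysis.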

## C#Cc1cc(=O)n2c3nc(ncc13)Nc1ccc(N3CCN(C)CC3)c(c1)OCCCCCC2 [Example 230, 1^5-ethynyl-3^4-(4-methylpiperazin-1-yl)-1^7,1^8-dihydro-4-oxa-2-aza-1(2,8)-pyrido[2,3-d]pyrimidina-3(1,3)-benzenacyclodecaphan-1^7-one]
[1]
  pIC50: > 6.30
[2]
  pIC50: > 6.00
[3]
  pIC50: > 6.30
[4]
  pIC50: 5.52 to 6.00

## C#Cc1cc(=O)n(CC2CCCC2)c2nc(Nc3ccc(N4CCN(C)CC4)cc3)ncc12 [Example 67, 8-(Cyclopentylmethyl)-5-ethynyl-2-((4-(4-methylpiperazin-1-yl)phenyl)amino)pyrido[2,3-d]pyrimidin-7(8H)-one]
[1]
  pIC50: > 6.30
[2]
  pIC50: > 6.00
[3]
  pIC50: > 6.30
[4]
  pIC50: 5.52 to 6.00

## C#Cc1cc(=O)n(C2CCCCC2)c2nc(Nc3ccc(N4CCN(C)CC4)cc3)ncc12 [Example 68, 8-Cyclohexyl-5-ethynyl-2-((4-(4-methylpiperazin-1-yl)phenyl)amino)pyrido[2,3-d]pyrimidin-7(8H)-one]
[1]
  pIC50: > 6.30
[2]
  pIC50: > 6.00
[3]
  pIC50: 6.00 to 6.30
[4]
  pIC50: 5.52 to 6.00

## C#Cc1cc(=O)n2c3nc(ncc13)Nc1ccc(N3CCN(C)CC3)c(c1)N(C)C(=O)CCC2 [Example 225, 1^5-Ethynyl-4-methyl-3^4-(4-methylpiperazin-1-yl)-1^7,1^8-dihydro-2,4-diaza-1(2,8)-pyrido[2,3-d]pyrimidina-3(1,3)-benzenacyclooctaphane-1^7,5-dione]
[1]
  pIC50: 5.52 to 6.00
[2]
  pIC50: < 5.00
[3]
  pIC50: 5.52 to 6.00
[4]
  pIC50: < 5.52

## C#Cc1cc(=O)n(-c2ccc([N+](=O)[O-])cc2)c2nc(Nc3ccccc3OC)ncc12 [Example 60, 5-Ethynyl-2-((2-methoxyphenyl)amino)-8-(4-nitrophenyl)pyrido[2,3-d]pyrimidin-7(8H)-one]
[1]
  pIC50: < 5.52
[2]
  pIC50: 5.00 to 6.00
[3]
  pIC50: < 5.52
[4]
  pIC50: < 5.52

## C#Cc1cc(=O)n2c3nc(ncc13)Nc1ccc(N3CCN(C)CC3)c(c1)CCOCC2 [Example 240, 1^5-Ethynyl-3^4-(4-methylpiperazin-1-yl)-1^7,1^8-dihydro-6-oxa-2-aza-1(2,8)-pyrido[2,3-d]pyrimidina-3(1,3)-benzenacyclooctaphan-1^7-one]
[1]
  pIC50: > 6.30
[2]
  pIC50: > 6.00
[3]
  pIC50: > 6.30
[4]
  pIC50: 5.52 to 6.00

## C#Cc1cc(=O)n2c3nc(ncc13)Nc1ccc(N3CCN(C)CC3)c(c1)COCCCC2 [Example 231, 1^5-Ethynyl-3^4-(4-methylpiperazin-1-yl)-1^7,1^8-dihydro-5-oxa-2-aza-1(2,8)-pyrido[2,3-d]pyrimidina-3(1,3)-benzenacyclononaphan-1^7-one]
[1]
  pIC50: > 6.30
[2]
  pIC50: > 6.00
[3]
  pIC50: > 6.30
[4]
  pIC50: 5.52 to 6.00

## C=Cc1cc(=O)n(-c2ccc(OC)cc2)c2nc(Nc3ccccc3OC)ncc12 [Example 157, 8-(4-Methoxyphenyl)-2-((2-methoxyphenyl)amino)-5-vinylpyrido[2,3-d]pyrimidin-7(8H)-one]
[1]
  pIC50: < 5.52
[2]
  pIC50: < 5.00
[3]
  pIC50: < 5.52
[4]
  pIC50: < 5.52

## C#Cc1cc(=O)n(C)c2nc(Nc3ccc(N4CCN(C)CC4)c(OC)c3)ncc12 [Example 208, 5-Ethynyl-2-((3-methoxy-4-(4-methylpiperazin-1-yl)phenyl)amino)-8-methylpyrido[2,3-d]pyrimidin-7(8H)-one]
[1]
  pIC50: > 6.30
[2]
  pIC50: > 6.00
[3]
  pIC50: > 6.30
[4]
  pIC50: 5.52 to 6.00

## C#Cc1cc(=O)n(-c2ccccc2)c2cc(Nc3ccccc3OC)ncc12 [Example 3, 4-Ethynyl-7-[(2-methoxyphenyl)amino]-1-phenyl-1,6-naphthyridin-2-one]
[1]
  pIC50: < 5.52
[2]
  pIC50: < 5.00
[3]
  pIC50: < 5.52
[4]
  pIC50: < 5.52

## C#Cc1c(-c2ccccc2Cl)c(=O)n(C)c2nc(Nc3ccc(N4CCN(C)CC4)cc3)ncc12 [Example 128, 6-(2-chlorophenyl)-5-ethynyl-8-methyl-2-{[4-(4-methylpiperazin-1-yl)phenyl]amino}pyrido[2,3-d]pyrimidin-7-one]
[1]
  pIC50: 6.00 to 6.30
[2]
  pIC50: > 6.00
[3]
  pIC50: < 5.52
[4]
  pIC50: > 6.30

## C#Cc1cc(=O)n(C2CNC(=O)C2)c2nc(Nc3ccc(N4CCN(C)CC4)cc3)ncc12 (centres unmarked) [Example 108, 4-(5-ethynyl-2-{[4-(4-methylpiperazin-1-yl)phenyl]amino}-7-oxopyrido[2,3-d]pyrimidin-8-yl)pyrrolidin-2-one]
[1]
  pIC50: < 5.52
[2]
  pIC50: < 5.00
[3]
  pIC50: < 5.52
[4]
  pIC50: < 5.52

## C#Cc1cc(=O)n(C2CCCC2)c2nc(Nc3cccc4c3CCN(C)C4)ncc12 [Example 185, 8-Cyclopentyl-5-ethynyl-2-[(2-methyl-3,4-dihydro-1H-isoquinolin-5-yl)amino]pyrido[2,3-d]pyrimidin-7-one]
[1]
  pIC50: < 5.52
[2]
  pIC50: < 5.00
[3]
  pIC50: < 5.52
[4]
  pIC50: < 5.52

## C#Cc1cc(=O)n([C@H]2CC[C@@H](NC(=O)CCC(=O)NC)CC2)c2nc(Nc3ccc(N4CCN(C)CC4)cc3)ncc12 [Example 98, N-Methyl-N′-[(1s,4s)-4-(5-ethynyl-2-{[4-(4-methylpiperazin-1-yl)phenyl]amino}-7-oxopyrido[2,3-d]pyrimidin-8-yl)cyclohexyl]succinamide]
[1]
  pIC50: < 5.52
[2]
  pIC50: 5.00 to 6.00
[3]
  pIC50: < 5.52
[4]
  pIC50: < 5.52

## C#Cc1cc(=O)n(-c2ccccc2)c2nc(Nc3ccc(N4CCC(N5CCN(C)CC5)CC4)cc3)ncc12 [Example 23, 5-Ethynyl-2-({4-[4-(4-methylpiperazin-1-yl)piperidin-1-yl]phenyl}amino)-8-phenylpyrido[2,3-d]pyrimidin-7-one]
[1]
  pIC50: > 6.30
[2]
  pIC50: > 6.00
[3]
  pIC50: > 6.30
[4]
  pIC50: 5.52 to 6.00

## C#Cc1cc(=O)n2c3nc(ncc13)Nc1ccc(N3CCN(C)CC3)c(c1)S(=O)(=O)NCCC2 [Example 234, 1^5-Ethynyl-3^4-(4-methylpiperazin-1-yl)-1^7,1^8-dihydro-4-thia-2,5-diaza-1(2,8)-pyrido[2,3-d]pyrimidina-3(1,3)-benzenacyclooctaphan-1^7-one 4,4-dioxide]
[1]
  pIC50: 5.52 to 6.00
[2]
  pIC50: > 6.00
[3]
  pIC50: 5.52 to 6.00
[4]
  pIC50: < 5.52

## C#Cc1cc(=O)n(C)c2nc(Nc3ccc(N4CCN(C)CC4)cc3)ncc12 [Example 45, 5-Ethynyl-8-methyl-2-{[4-(4-methylpiperazin-1-yl)phenyl]amino}pyrido[2,3-d]pyrimidin-7-one]
[1]
  pIC50: > 6.30
[2]
  pIC50: > 6.00
[3]
  pIC50: > 6.30
[4]
  pIC50: < 5.52

## C#Cc1cc(=O)n2c3nc(ncc13)Nc1cccc(c1)OCCCC2 [Example 193, 1^5-Ethynyl-1^7,1^8-dihydro-4-oxa-2-aza-1(2,8)-pyrido[2,3-d]pyrimidina-3(1,3)-benzenacyclooctaphan-1^7-one]
[1]
  pIC50: > 6.30
[2]
  pIC50: < 5.00
[3]
  pIC50: 6.00 to 6.30
[4]
  pIC50: < 5.52

## C#Cc1cc(=O)n2c3nc(ncc13)Nc1cccc(c1)OC/C=C\C2 [Example 187, (Z)-1^5-ethynyl-1^7,1^8-dihydro-4-oxa-2-aza-1(2,8)-pyrido[2,3-d]pyrimidina-3(1,3)-benzenacyclooctaphan-6-en-1^7-one]
[1]
  pIC50: > 6.30
[2]
  pIC50: 5.00 to 6.00
[3]
  pIC50: 6.00 to 6.30
[4]
  pIC50: < 5.52

## C#Cc1cc(=O)n(-c2ccccc2)c2nc(Nc3cnn(C4CCN(C)CC4)c3)ncc12 [Example 19, 5-Ethynyl-2-{[1-(1-methylpiperidin-4-yl)pyrazol-4-yl]amino}-8-phenylpyrido[2,3-d]pyrimidin-7-one]
[1]
  pIC50: > 6.30
[2]
  pIC50: > 6.00
[3]
  pIC50: 6.00 to 6.30
[4]
  pIC50: < 5.52

## C#Cc1cc(=O)n(-c2ccccc2)c2nc(Nc3ccc(N4CCC(N5CC(F)(CO)C5)CC4)cc3)ncc12 [Example 30, 5-Ethynyl-2-[(4-{4-[3-fluoro-3-(hydroxymethyl)azetidin-1-yl]piperidin-1-yl}phenyl)amino]-8-phenylpyrido[2,3-d]pyrimidin-7-one]
[1]
  pIC50: > 6.30
[2]
  pIC50: > 6.00
[3]
  pIC50: > 6.30
[4]
  pIC50: < 5.52

## C#Cc1cc(=O)n2c3nc(ncc13)Nc1cccc(c1)OCCC2 [Example 186, 1^5-ethynyl-1^7,1^8-dihydro-4-oxa-2-aza-1(2,8)-pyrido[2,3-d]pyrimidina-3(1,3)-benzenacycloheptaphan-1^7-one]
[1]
  pIC50: < 5.52
[2]
  pIC50: < 5.00
[3]
  pIC50: < 5.52
[4]
  pIC50: < 5.52

## C#Cc1cc(=O)n(Cc2ccn(C)n2)c2nc(Nc3ccc(N4CCN(C)CC4)c(OCCC4CCCC4)c3)ncc12 [Example 210, 2-((3-(2-Cyclopentylethoxy)-4-(4-methylpiperazin-1-yl)phenyl)amino)-5-ethynyl-8-((1-methyl-1H-pyrazol-3-yl)methyl)pyrido[2,3-d]pyrimidin-7(8H)-one]
[1]
  pIC50: > 6.30
[2]
  pIC50: > 6.00
[3]
  pIC50: > 6.30
[4]
  pIC50: < 5.52
